Our source for the MIC values is ChEMBL document CHEMBL5352460, “Antibacterial activity evaluation of pleuromutilin derivatives with 4(3H)-quinazolinone scaffold against methicillin-resistant Staphylococcusaureus” (Eur J Med Chem, 2023).

Structures are written as SMILES. In brackets after ≈: the same amount, converted by molar mass.

Assay [1] concerns Staphylococcus aureus. As to the kind of experiment: microbe, parasite or virus in culture. The following applies: time 20 hrs. The class given is functional.
Assay [2] concerns Staphylococcus aureus. As to the kind of experiment: microbe, parasite or virus in culture. The class given is functional. As to conditions: ATCC29213, time 20 hrs.
The nature of assay [3]: Antibacterial activity against Salmonella pullorum assessed as inhibition of bacterial growth incubated for 20 hrs by absorbance based analysis. Format: functional, Salmonella enterica subsp. enterica serovar Pullorum. As to conditions: Salmonella enterica.
For another assay, the system named is Escherichia coli. As to the kind of experiment: microbe, parasite or virus in culture. The class given is functional. As to conditions: ATCC25922, time 20 hrs.
For assay [4], the system named is Staphylococcus epidermidis. As to the kind of experiment: Antibacterial activity against methicillin-resistant Staphylococcus epidermidis assessed as inhibition of bacterial growth incubated for 20 hrs by absorbance based analysis. The class given is functional.
The subject of assay [5] is Staphylococcus aureus. As to the kind of experiment: microbe, parasite or virus in culture. Format: functional. As to conditions: ATCC25923, time 20 hrs.

Consider `C=C[C@]1(C)C[C@@H](OC(=O)CSc2nc3cc(OC)ccc3c(=O)[nH]2)[C@]2(C)[C@H](C)CC[C@]3(CCC(=O)[C@H]32)[C@@H](C)[C@@H]1O`, for which the MIC is 0.25 µg/mL (≈ 0.44 µM) with Staphylococcus aureus [1]; 0.25 µg/mL (≈ 0.44 µM) in the assay with Staphylococcus aureus [2]; above 64 µg/mL in assay [3]; above 64 µg/mL in the assay on Escherichia coli; 1 µg/mL (≈ 1.76 µM) in assay [4]; 0.25 µg/mL (≈ 0.44 µM) against Staphylococcus aureus [5].
`C=C[C@]1(C)C[C@@H](OC(=O)CSc2nc3cc(Br)ccc3c(=O)[nH]2)[C@]2(C)[C@H](C)CC[C@]3(CCC(=O)[C@H]32)[C@@H](C)[C@@H]1O`: the MIC is 0.5 µg/mL (≈ 0.81 µM) in the assay with Staphylococcus aureus [1]; 0.25 µg/mL (≈ 0.405 µM) in the assay with Staphylococcus aureus [2]; above 64 µg/mL in assay [3]; above 64 µg/mL against Escherichia coli; 4 µg/mL (≈ 6.48 µM) in assay [4]; 0.25 µg/mL (≈ 0.405 µM) against Staphylococcus aureus [5].
`C=C[C@]1(C)C[C@@H](OC(=O)CSc2nc3ccc(Br)cc3c(=O)[nH]2)[C@]2(C)[C@H](C)CC[C@]3(CCC(=O)[C@H]32)[C@@H](C)[C@@H]1O`: the MIC is 0.25 µg/mL (≈ 0.405 µM) against Staphylococcus aureus [1]; 0.25 µg/mL (≈ 0.405 µM) in the assay on Staphylococcus aureus [2]; above 64 µg/mL in assay [3]; above 64 µg/mL against Escherichia coli; 2 µg/mL (≈ 3.24 µM) in assay [4]; 0.25 µg/mL (≈ 0.405 µM) in the assay with Staphylococcus aureus [5].
Take `C=C[C@]1(C)C[C@@H](OC(=O)CSc2nc3ccc(F)cc3c(=O)[nH]2)[C@]2(C)[C@H](C)CC[C@]3(CCC(=O)[C@H]32)[C@@H](C)[C@@H]1O`: the MIC in the assay with Staphylococcus aureus [1] is 0.5 µg/mL (≈ 0.898 µM); with Staphylococcus aureus [2], 0.25 µg/mL (≈ 0.449 µM); in assay [3], above 64 µg/mL; with Escherichia coli, above 64 µg/mL; in assay [4], 2 µg/mL (≈ 3.59 µM); in the assay on Staphylococcus aureus [5], 0.25 µg/mL (≈ 0.449 µM).
Regarding `C=C[C@]1(C)C[C@@H](OC(=O)CSc2nc3cccc(Br)c3c(=O)n2-c2ccccc2)[C@]2(C)[C@H](C)CC[C@]3(CCC(=O)[C@H]32)[C@@H](C)[C@@H]1O`, the MIC (against Staphylococcus aureus [1]; against Staphylococcus aureus [2]; in assay [3]; against Escherichia coli; in assay [4]; against Staphylococcus aureus [5]) was above 64 µg/mL throughout.
In the case of `C=C[C@]1(C)C[C@@H](OC(=O)CSc2nc3ncccc3c(=O)[nH]2)[C@]2(C)[C@H](C)CC[C@]3(CCC(=O)[C@H]32)[C@@H](C)[C@@H]1O`, the MIC in the assay on Staphylococcus aureus [1] is 2 µg/mL (≈ 3.71 µM); with Staphylococcus aureus [2], 2 µg/mL (≈ 3.71 µM); in assay [3], above 64 µg/mL; against Escherichia coli, above 64 µg/mL; in assay [4], 8 µg/mL (≈ 14.8 µM); with Staphylococcus aureus [5], 4 µg/mL (≈ 7.41 µM).
Take `C=C[C@]1(C)C[C@@H](OC(=O)CSc2nc3cccc(F)c3c(=O)[nH]2)[C@]2(C)[C@H](C)CC[C@]3(CCC(=O)[C@H]32)[C@@H](C)[C@@H]1O`: the MIC in the assay on Staphylococcus aureus [1] was 0.25 µg/mL (≈ 0.449 µM); with Staphylococcus aureus [2] it was 0.25 µg/mL (≈ 0.449 µM); in assay [3], above 64 µg/mL; against Escherichia coli, above 64 µg/mL; in assay [4], 2 µg/mL (≈ 3.59 µM); with Staphylococcus aureus [5] it was 0.25 µg/mL (≈ 0.449 µM).
As for `C=C[C@]1(C)C[C@@H](OC(=O)CSc2nc3cccc(OC)c3c(=O)[nH]2)[C@]2(C)[C@H](C)CC[C@]3(CCC(=O)[C@H]32)[C@@H](C)[C@@H]1O`, the MIC was 0.25 µg/mL (≈ 0.44 µM) in the assay on Staphylococcus aureus [1]; 0.25 µg/mL (≈ 0.44 µM) against Staphylococcus aureus [2]; above 64 µg/mL in assay [3]; above 64 µg/mL against Escherichia coli; 4 µg/mL (≈ 7.03 µM) in assay [4]; 0.25 µg/mL (≈ 0.44 µM) against Staphylococcus aureus [5].
Consider `C=C[C@]1(C)C[C@@H](OC(=O)CSc2nc3cc(Cl)ccc3c(=O)[nH]2)[C@]2(C)[C@H](C)CC[C@]3(CCC(=O)[C@H]32)[C@@H](C)[C@@H]1O`, for which the MIC in the assay on Staphylococcus aureus [1] was 0.5 µg/mL (≈ 0.872 µM); with Staphylococcus aureus [2] it was 0.25 µg/mL (≈ 0.436 µM); in assay [3], above 64 µg/mL; with Escherichia coli, above 64 µg/mL; in assay [4], 1 µg/mL (≈ 1.74 µM); in the assay with Staphylococcus aureus [5] it was 0.5 µg/mL (≈ 0.872 µM).
In the case of `C=C[C@]1(C)C[C@@H](OC(=O)CSc2nc3ccccc3c(=O)n2CC)[C@]2(C)[C@H](C)CC[C@]3(CCC(=O)[C@H]32)[C@@H](C)[C@@H]1O`, the MIC is 0.25 µg/mL (≈ 0.441 µM) with Staphylococcus aureus [1]; 0.125 µg/mL (≈ 0.221 µM) in the assay with Staphylococcus aureus [2]; above 64 µg/mL in assay [3]; above 64 µg/mL in the assay with Escherichia coli; 2 µg/mL (≈ 3.53 µM) in assay [4]; 0.125 µg/mL (≈ 0.221 µM) in the assay on Staphylococcus aureus [5].
On to `C=C[C@]1(C)C[C@@H](OC(=O)CSc2nc3ccc(C)cc3c(=O)[nH]2)[C@]2(C)[C@H](C)CC[C@]3(CCC(=O)[C@H]32)[C@@H](C)[C@@H]1O`, for which the MIC against Staphylococcus aureus [1] is 0.5 µg/mL (≈ 0.905 µM); in the assay on Staphylococcus aureus [2], 0.25 µg/mL (≈ 0.452 µM); in assay [3], above 64 µg/mL; against Escherichia coli, above 64 µg/mL; in assay [4] it was 2 µg/mL (≈ 3.62 µM); against Staphylococcus aureus [5], 0.5 µg/mL (≈ 0.905 µM).
`C=C[C@]1(C)C[C@@H](OC(=O)CSc2nc3ccccc3c(=O)n2-c2ccccc2)[C@]2(C)[C@H](C)CC[C@]3(CCC(=O)[C@H]32)[C@@H](C)[C@@H]1O`: the MIC was 32 µg/mL (≈ 52 µM) in the assay with Staphylococcus aureus [1]; 32 µg/mL (≈ 52 µM) against Staphylococcus aureus [2]; above 64 µg/mL in assay [3]; above 64 µg/mL against Escherichia coli; 64 µg/mL (≈ 104 µM) in assay [4]; 32 µg/mL (≈ 52 µM) with Staphylococcus aureus [5].
`C=C[C@]1(C)C[C@@H](OC(=O)CSc2nc3c(Br)cccc3c(=O)[nH]2)[C@]2(C)[C@H](C)CC[C@]3(CCC(=O)[C@H]32)[C@@H](C)[C@@H]1O`: the MIC against Staphylococcus aureus [1] is 0.25 µg/mL (≈ 0.405 µM); against Staphylococcus aureus [2], 0.5 µg/mL (≈ 0.81 µM); in assay [3] it was above 64 µg/mL; in the assay with Escherichia coli it was above 64 µg/mL; in assay [4], 2 µg/mL (≈ 3.24 µM); with Staphylococcus aureus [5] it was 0.25 µg/mL (≈ 0.405 µM).
Take `C=C[C@]1(C)C[C@@H](OC(=O)CSc2nc3cc(F)ccc3c(=O)[nH]2)[C@]2(C)[C@H](C)CC[C@]3(CCC(=O)[C@H]32)[C@@H](C)[C@@H]1O`: the MIC in the assay with Staphylococcus aureus [1] is 0.5 µg/mL (≈ 0.898 µM); in the assay on Staphylococcus aureus [2], 0.25 µg/mL (≈ 0.449 µM); in assay [3], above 64 µg/mL; against Escherichia coli, above 64 µg/mL; in assay [4], 4 µg/mL (≈ 7.19 µM); against Staphylococcus aureus [5], 0.5 µg/mL (≈ 0.898 µM).
As for `C=C[C@]1(C)C[C@@H](OC(=O)CSc2nc3c(c(=O)[nH]2)CCC3)[C@]2(C)[C@H](C)CC[C@]3(CCC(=O)[C@H]32)[C@@H](C)[C@@H]1O`, the MIC against Staphylococcus aureus [1] is 0.25 µg/mL (≈ 0.473 µM); against Staphylococcus aureus [2], 0.25 µg/mL (≈ 0.473 µM); in assay [3] it was above 64 µg/mL; in the assay with Escherichia coli it was above 64 µg/mL; in assay [4], 1 µg/mL (≈ 1.89 µM); in the assay with Staphylococcus aureus [5], 0.25 µg/mL (≈ 0.473 µM).
Take `C=C[C@]1(C)C[C@@H](OC(=O)CSc2nc3c(C)cccc3c(=O)[nH]2)[C@]2(C)[C@H](C)CC[C@]3(CCC(=O)[C@H]32)[C@@H](C)[C@@H]1O`: the MIC was 0.125 µg/mL (≈ 0.226 µM) in the assay on Staphylococcus aureus [1]; 0.125 µg/mL (≈ 0.226 µM) with Staphylococcus aureus [2]; above 64 µg/mL in assay [3]; above 64 µg/mL in the assay on Escherichia coli; 1 µg/mL (≈ 1.81 µM) in assay [4]; 0.25 µg/mL (≈ 0.452 µM) with Staphylococcus aureus [5].
On to `C=C[C@]1(C)C[C@@H](OC(=O)CSc2nc3cc(C)ccc3c(=O)[nH]2)[C@]2(C)[C@H](C)CC[C@]3(CCC(=O)[C@H]32)[C@@H](C)[C@@H]1O`, for which the MIC is 0.5 µg/mL (≈ 0.905 µM) against Staphylococcus aureus [1]; 0.5 µg/mL (≈ 0.905 µM) in the assay on Staphylococcus aureus [2]; above 64 µg/mL in assay [3]; above 64 µg/mL in the assay on Escherichia coli; 2 µg/mL (≈ 3.62 µM) in assay [4]; 0.25 µg/mL (≈ 0.452 µM) in the assay with Staphylococcus aureus [5].
For `C=C[C@]1(C)C[C@@H](OC(=O)CSc2nc3ccc(OC)cc3c(=O)[nH]2)[C@]2(C)[C@H](C)CC[C@]3(CCC(=O)[C@H]32)[C@@H](C)[C@@H]1O`, the MIC against Staphylococcus aureus [1] was 0.25 µg/mL (≈ 0.44 µM); in the assay with Staphylococcus aureus [2], 0.125 µg/mL (≈ 0.22 µM); in assay [3], above 64 µg/mL; in the assay on Escherichia coli, above 64 µg/mL; in assay [4] it was 4 µg/mL (≈ 7.03 µM); against Staphylococcus aureus [5] it was 0.25 µg/mL (≈ 0.44 µM).
